Reference: patent US6849653B2, “Substituted pyrazolyl benzenesulfamide compounds for the treatment of inflammation” (Pharmacia Corporation, priority 2001, dated 2005)

Target: T1, rhIKK1/IKK2 heterodimer (Homo sapiens, UniProt O14920+O15111)
T1 construct: made in house; host or cells: insect cells (baculovirus coinfection; SF9)
T1 sequence (O14920 1-756): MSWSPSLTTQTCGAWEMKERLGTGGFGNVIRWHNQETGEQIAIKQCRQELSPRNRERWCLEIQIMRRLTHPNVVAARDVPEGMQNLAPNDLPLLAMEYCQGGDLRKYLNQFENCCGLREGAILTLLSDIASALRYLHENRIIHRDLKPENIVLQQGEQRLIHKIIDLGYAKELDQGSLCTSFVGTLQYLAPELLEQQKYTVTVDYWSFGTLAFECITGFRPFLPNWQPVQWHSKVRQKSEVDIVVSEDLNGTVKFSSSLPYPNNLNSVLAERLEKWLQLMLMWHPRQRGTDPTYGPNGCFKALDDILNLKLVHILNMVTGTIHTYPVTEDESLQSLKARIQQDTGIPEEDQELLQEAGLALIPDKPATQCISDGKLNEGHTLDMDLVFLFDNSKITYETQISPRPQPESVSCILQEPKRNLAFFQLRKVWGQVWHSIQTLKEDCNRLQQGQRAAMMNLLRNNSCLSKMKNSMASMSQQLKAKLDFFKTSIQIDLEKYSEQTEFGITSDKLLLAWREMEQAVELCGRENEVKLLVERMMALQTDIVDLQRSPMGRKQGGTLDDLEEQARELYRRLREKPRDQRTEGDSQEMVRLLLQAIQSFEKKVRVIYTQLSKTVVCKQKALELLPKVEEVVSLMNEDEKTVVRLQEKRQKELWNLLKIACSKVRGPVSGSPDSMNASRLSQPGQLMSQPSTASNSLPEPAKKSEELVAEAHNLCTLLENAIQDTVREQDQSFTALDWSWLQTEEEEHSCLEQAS
T1 sequence (O15111 1-745): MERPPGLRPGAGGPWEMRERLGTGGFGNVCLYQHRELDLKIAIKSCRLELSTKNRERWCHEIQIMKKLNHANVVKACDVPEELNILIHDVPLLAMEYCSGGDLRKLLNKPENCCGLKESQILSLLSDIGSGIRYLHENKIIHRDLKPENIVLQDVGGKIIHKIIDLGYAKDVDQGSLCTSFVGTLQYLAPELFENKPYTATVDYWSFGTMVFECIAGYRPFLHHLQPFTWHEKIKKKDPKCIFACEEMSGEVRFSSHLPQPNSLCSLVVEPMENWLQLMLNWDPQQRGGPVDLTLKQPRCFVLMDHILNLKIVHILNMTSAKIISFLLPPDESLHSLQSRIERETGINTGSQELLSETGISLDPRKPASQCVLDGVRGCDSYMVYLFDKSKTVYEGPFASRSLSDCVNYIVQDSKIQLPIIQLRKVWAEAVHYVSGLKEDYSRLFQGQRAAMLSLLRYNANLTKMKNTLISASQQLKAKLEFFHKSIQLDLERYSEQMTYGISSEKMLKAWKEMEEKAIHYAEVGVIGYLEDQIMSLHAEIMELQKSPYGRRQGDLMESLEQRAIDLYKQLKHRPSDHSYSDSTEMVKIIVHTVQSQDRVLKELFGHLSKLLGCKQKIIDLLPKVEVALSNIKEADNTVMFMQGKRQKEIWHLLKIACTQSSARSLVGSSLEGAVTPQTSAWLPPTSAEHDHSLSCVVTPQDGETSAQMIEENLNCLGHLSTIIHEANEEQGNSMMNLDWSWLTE
Assay: IKK Heterodimer Resin Enzyme Assay
Type: biochemical
Details: Table 1; values given as bins; read-out: HetD (IKK heterodimer assay values expressed as IC50)
Source text: cDNAs of human IKK1 and IKK2 were amplified by reverse transcriptase-polymerase chain reaction from human placental RNA (Clonetech). hIKK1 was subcloned into pFastBac HTa (Life Technologies) and expressed as N-terminal His6-tagged fusion protein. The hIKK2 cDNA was amplified using a reverse oligonucleotide primer which incorporated the peptide sequence for a FLAG-epitope tag at the C-terminus of the IKK2 coding region ([…]). The hIKK2:FLAG cDNA was subcloned into the baculovirus vector pFastBac. The rhIKK2 ([…]) mutant was constructed in the same vector used for wild type rhIKK2 using a QuikChange™ mutagenesis kit (Stratagene). Viral stocks of each construct were used to infect insect cells grown in 40L suspension culture. […] Cell lysates were stored at −80° C. until purification of the recombinant proteins was undertaken as described below.
Isolation of rhIKK1/IKK2 Heterodimer
The heterodimer enzyme was produced by coinfection in a baculovirus system (FLAG IKK2/IKK1 His; MOI=0.1 and I=72 hrs). Infected cells were centrifuged and the cell pellet (10.0 g) was suspended in 50 ml of buffer A. The protein suspension was microfluidized and centrifuged at 100,000×g for 45 min. Imidazole was added to the supernatant to a final concentration of 10 mM. The protein was allowed to bind 25 ml of Ni-NTA resin by mixing for 2 hrs. The protein-resin slurry was poured into a 25 ml column and washed with 250 ml of buffer A containing 10 mM imidazole followed by 125 ml of buffer A containing 50 mM imidazole. Buffer A, containing 300 mM imidazole, was then used to elute the protein. A 75 ml pool was collected and NP-40 was added to a final concentration of 0.1%. […] The protein-resin slurry was then centrifuged for 5 min at 2,000 rpm. The supernatant was collected and the resin re-suspended in 100 ml of buffer C containing 0.1% NP-40. The resin was washed with 375 ml of buffer C containing 0.1% NP-40. The protein-resin was poured into a 25 ml column and the enzyme eluted using buffer B containing FLAG peptide. Enzyme fractions (100 ml) were collected and concentrated to 20 ml using an Amicon membrane with molecular weight cut-off of 30 kDa. Bovine serum albumin was added to the concentrated enzyme to final concentration of 0.1%. The enzyme was then aliquoted and stored at −80° C.
IKK Heterodimer Resin Enzyme Assay
Resin was allowed to settle for one hour and 50 ul of supernatant was removed to a Micolite-2 flat bottom plate (Dynex). 150 μl of scintillation fluid (Microscint 40) (Packard) was added to each well. Incorporation of [γ-^33P] ATP was measured using a Top-Count NXT (Packard).

Compound | IC50
8-amino-1-{4-[(aminothio)peroxy]phenyl}-1H-benzo[g]indazole-3-carboxamide [Example 4c] | ≤ 1 µM
C=CCN(CC=C)S(=O)(=O)c1ccc(-n2nc(C(N)=O)c3ccc4ccc(N)cc4c32)cc1 [Example 7, 8-amino-1-{4-[(diallylamino)sulfonyl]phenyl}-1H-benzo[g]indazole-3-carboxamide] | ≤ 1 µM
COc1cccc(C(=O)Nc2ccc3ccc4c(C(N)=O)nn(-c5ccc(S(N)(=O)=O)cc5)c4c3c2)c1 [Example 8, 1-[4-(aminosulfonyl)phenyl]-8-[(3-methoxybenzoyl)amino]-1H-benzo[g]indazole-3-carboxamide] | ≤ 1 µM
NC(=O)c1nn(-c2ccc(S(N)(=O)=O)cc2)c2c1ccc1ccc(NC(=O)c3cccc(Cl)c3)cc12 [Example 9, 1-[4-(aminosulfonyl)phenyl]-8-[(3-chlorobenzoyl)amino]-1H-benzo[g]indazole-3-carboxamide] | ≤ 1 µM
NC(=O)c1nn(-c2ccc(S(N)(=O)=O)cc2)c2c1ccc1ccc(NC(=O)c3cccc(C(F)(F)F)c3)cc12 [Example 10, 1-[4-(aminosulfonyl)phenyl]-8-{[3-(trifluoromethyl)benzoyl]amino}-1H-benzo[g]indazole-3-carboxamide] | 1 to 10 µM
Cc1cccc(C(=O)Nc2ccc3ccc4c(C(N)=O)nn(-c5ccc(S(N)(=O)=O)cc5)c4c3c2)c1 [Example 11, 1-[4-(aminosulfonyl)phenyl]-8-[(3-methylbenzoyl)amino]-1H-benzo[g]indazole-3-carboxamide] | ≤ 1 µM
NC(=O)c1nn(-c2ccc(S(N)(=O)=O)cc2)c2c1ccc1ccc(NC(=O)c3cccc(Br)c3)cc12 [Example 12, 1-[4-(aminosulfonyl)phenyl]-8-[(3-bromobenzoyl)amino]-1H-benzo[g]indazole-3-carboxamide] | ≤ 1 µM
NC(=O)c1nn(-c2ccc(S(N)(=O)=O)cc2)c2c1ccc1ccc(NC(=O)c3cccnc3)cc12 [Example 13, 1-[4-(aminosulfonyl)phenyl]-8-[(pyridin-3-ylcarbonyl)amino]-1H-benzo[g]indazole-3-carboxamide] | ≤ 1 µM
NC(=O)c1nn(-c2ccc(S(N)(=O)=O)cc2)c2c1ccc1ccc(NC(=O)c3ccccc3Cl)cc12 [Example 14, 1-[4-(aminosulfonyl)phenyl]-8-[(2-chlorobenzoyl)amino]-1H-benzo[g]indazole-3-carboxamide] | ≤ 1 µM
NC(=O)c1nn(-c2ccc(S(N)(=O)=O)cc2)c2c1ccc1ccc(NS(=O)(=O)c3cccc(Br)c3)cc12 [Example 15, 1-[4-(aminosulfonyl)phenyl]-8-{[(3-bromophenyl)sulfonyl]amino}-1H-benzo[g]indazole-3-carboxamide] | 1 to 10 µM
NC(=O)c1nn(-c2ccc(S(N)(=O)=O)cc2)c2c1ccc1ccc(NS(=O)(=O)c3cccc(Cl)c3)cc12 [Example 16, 1-[4-(aminosulfonyl)phenyl]-8-{[(3-chlorophenyl)sulfonyl]amino}-1H-benzo[g]indazole-3-carboxamide] | 1 to 10 µM
N#Cc1cccc(C(=O)Nc2ccc3ccc4c(C(N)=O)nn(-c5ccc(S(N)(=O)=O)cc5)c4c3c2)c1 [Example 17, 1-[4-(aminosulfonyl)phenyl]-8-[(3-cyanobenzoyl)amino]-1H-benzo[g]indazole-3-carboxamide] | ≤ 1 µM
Cc1cccc(S(=O)(=O)Nc2ccc3ccc4c(C(N)=O)nn(-c5ccc(S(N)(=O)=O)cc5)c4c3c2)c1 [Example 18, 1-[4-(aminosulfonyl)phenyl]-8-{[(3-methylphenyl)sulfonyl]amino}-1H-benzo[g]indazole-3-carboxamide] | 10 to 100 µM
NC(=O)c1nn(-c2ccc(S(N)(=O)=O)cc2)c2c1ccc1ccc(NS(=O)(=O)c3cccc(C(F)(F)F)c3)cc12 [Example 19, 1-[4-(aminosulfonyl)phenyl]-8-({[3-(trifluoromethyl)phenyl]sulfonyl}amino)-1H-benzo[g]indazole-3-carboxamide] | 10 to 100 µM
